# Assay results published in ChEMBL document CHEMBL1201862, “PubChem BioAssay data set” (2004).
#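 Compound exposure: 48 hours, 5 concentrations, 96-well plates. Abbreviation: GI50, concentration required for 50% inhibition of growth.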 Calls of active or inactive are those of the source. No stated cut-off is given here; in the data, active = GI50 up to about 1.1 µM and inactive = higher.
# Assays:
# Assay in all cases: NCI-60 cell line screen, 48 h
# [1] = tested on: A549
# [2] = tested on: ACHN
# [3] = tested on: CCRF-CEM
# [4] = tested on: DU-145
# [5] = tested on: HOP-92
# [6] = tested on: HT-29
# [7] = tested on: K562
# [8] = tested on: MCF7
# [9] = tested on: MDA-MB-435
# [10] = tested on: NCI-H226
# [11] = tested on: NCI/ADR-RES
# [12] = tested on: OVCAR-3
# [13] = tested on: OVCAR-4
# [14] = tested on: OVCAR-8
# [15] = tested on: SF-295
# [16] = tested on: SK-MEL-2
# [17] = tested on: SNB-19
# [18] = tested on: TK-10
# [19] = tested on: UO-31
# [20] = tested on: HL-60
Compound,GI50 [1],GI50 [2],GI50 [3],GI50 [4],GI50 [5],GI50 [6],GI50 [7],GI50 [8],GI50 [9],GI50 [10],GI50 [11],GI50 [12],GI50 [13],GI50 [14],GI50 [15],GI50 [16],GI50 [17],GI50 [18],GI50 [19],GI50 [20]
COC(=O)C1Cc2c([nH]c3ccccc23)-c2[nH]c3ccccc3c2CC(NC(C)=O)C(=O)NCC(=O)N1 (stereo not drawn),> 100 µM (inactive),> 100 µM (inactive),> 100 µM (inactive),> 100 µM (inactive),77.4 µM (inactive),> 100 µM (inactive),> 100 µM (inactive),> 100 µM (inactive),> 100 µM (inactive),> 100 µM (inactive),> 100 µM (inactive),> 100 µM (inactive),> 100 µM (inactive),> 100 µM (inactive),> 100 µM (inactive),> 100 µM (inactive),> 100 µM (inactive),> 100 µM (inactive),> 100 µM (inactive),
O=[N+]([O-])c1ccc(-c2nc(/C=N/N3CCCCC3)cs2)o1,40 µM (inactive),> 100 µM (inactive),,> 100 µM (inactive),> 100 µM (inactive),25.9 µM (inactive),57.5 µM (inactive),38.6 µM (inactive),27.7 µM (inactive),> 100 µM (inactive),74.8 µM (inactive),26.3 µM (inactive),23.6 µM (inactive),92 µM (inactive),> 100 µM (inactive),> 100 µM (inactive),> 100 µM (inactive),> 100 µM (inactive),> 100 µM (inactive),20.1 µM (inactive)
O=C1NC(=S)NC1C(Cc1ccccc1)c1ccco1 (stereo not drawn),> 100 µM (inactive),> 100 µM (inactive),68.2 µM (inactive),> 100 µM (inactive),> 100 µM (inactive),> 100 µM (inactive),83.4 µM (inactive),6.76 µM (inactive),> 100 µM (inactive),> 100 µM (inactive),> 100 µM (inactive),,> 100 µM (inactive),> 100 µM (inactive),> 100 µM (inactive),,> 100 µM (inactive),> 100 µM (inactive),> 100 µM (inactive),39.6 µM (inactive)
SC1=NC2(CCCCCC2)NN1c1ccccc1,0.206 µM (active),0.0785 µM (active),0.0664 µM (active),0.0708 µM (active),> 100 µM (inactive),1.35 µM (inactive),0.019 µM (active),1.36 µM (inactive),3.61 µM (inactive),> 100 µM (inactive),> 100 µM (inactive),9.91 µM (inactive),2.16 µM (inactive),15.5 µM (inactive),0.0471 µM (active),,> 41 µM (inactive),> 28.6 µM (inactive),0.168 µM (active),0.0867 µM (active)
C[C@H](NC1=C(Cl)C(=O)c2c(O)ccc(O)c2C1=O)C(=O)Nc1ccc([N+](=O)[O-])cc1,1.71 µM (inactive),2.94 µM (inactive),0.305 µM (active),1.82 µM (inactive),2.08 µM (inactive),2.62 µM (inactive),10 µM (inactive),1.75 µM (inactive),1.57 µM (inactive),1.91 µM (inactive),1.81 µM (inactive),1.38 µM (inactive),1.73 µM (inactive),2.37 µM (inactive),1.89 µM (inactive),3.52 µM (inactive),3.06 µM (inactive),1.95 µM (inactive),,
CCCN1C(=O)CC(C)N(Cc2ccccc2Cl)C1=S (stereo not drawn),35.3 µM (inactive),24.5 µM (inactive),44.5 µM (inactive),26.4 µM (inactive),24.2 µM (inactive),37.9 µM (inactive),,26.5 µM (inactive),23.7 µM (inactive),,21.2 µM (inactive),26.1 µM (inactive),43.7 µM (inactive),27.2 µM (inactive),31.9 µM (inactive),21.7 µM (inactive),46.1 µM (inactive),25 µM (inactive),,37.4 µM (inactive)
Cc1ccc(OCCn2cc(Nc3ccccc3)c(=O)[nH]c2=O)cc1,> 100 µM (inactive),> 100 µM (inactive),> 100 µM (inactive),> 100 µM (inactive),> 100 µM (inactive),81.7 µM (inactive),> 100 µM (inactive),> 100 µM (inactive),> 100 µM (inactive),> 100 µM (inactive),> 100 µM (inactive),> 100 µM (inactive),> 100 µM (inactive),> 100 µM (inactive),> 100 µM (inactive),> 100 µM (inactive),> 100 µM (inactive),> 100 µM (inactive),> 100 µM (inactive),
CC(C)(CO)NC(=O)Nc1c(C(F)(F)F)cc(-c2ccccc2)[nH]c1=O,> 100 µM (inactive),> 100 µM (inactive),> 100 µM (inactive),> 100 µM (inactive),> 100 µM (inactive),> 100 µM (inactive),> 100 µM (inactive),> 100 µM (inactive),> 100 µM (inactive),> 100 µM (inactive),> 100 µM (inactive),29.4 µM (inactive),,> 100 µM (inactive),> 100 µM (inactive),> 100 µM (inactive),> 100 µM (inactive),> 100 µM (inactive),> 100 µM (inactive),
O=C(NC1(C(=O)O)CC1c1ccccc1)c1ccccc1 (stereo not drawn),> 100 µM (inactive),> 100 µM (inactive),,> 100 µM (inactive),> 100 µM (inactive),> 100 µM (inactive),> 100 µM (inactive),> 100 µM (inactive),> 100 µM (inactive),> 100 µM (inactive),> 100 µM (inactive),> 100 µM (inactive),> 100 µM (inactive),> 100 µM (inactive),> 100 µM (inactive),> 100 µM (inactive),> 100 µM (inactive),> 100 µM (inactive),> 100 µM (inactive),> 100 µM (inactive)
O=C(N/N=C(COc1ccccc1)\N=C\c1ccncc1)c1ccncc1,> 100 µM (inactive),> 100 µM (inactive),> 100 µM (inactive),> 100 µM (inactive),68.7 µM (inactive),> 100 µM (inactive),> 100 µM (inactive),> 100 µM (inactive),> 100 µM (inactive),,> 100 µM (inactive),> 100 µM (inactive),> 100 µM (inactive),> 100 µM (inactive),> 100 µM (inactive),> 100 µM (inactive),> 100 µM (inactive),> 100 µM (inactive),,> 100 µM (inactive)
Cc1cccc(Nc2cc(Cl)nc(SCC(=O)O)n2)c1C [PIRINIXIC ACID],> 100 µM (inactive),> 100 µM (inactive),> 100 µM (inactive),> 100 µM (inactive),> 100 µM (inactive),> 100 µM (inactive),87.5 µM (inactive),> 100 µM (inactive),> 100 µM (inactive),> 100 µM (inactive),> 100 µM (inactive),> 100 µM (inactive),> 100 µM (inactive),> 100 µM (inactive),> 100 µM (inactive),> 100 µM (inactive),> 100 µM (inactive),> 100 µM (inactive),,> 100 µM (inactive)
Cc1oc2nc(N(C)C)n3nnnc3c2c1C,> 100 µM (inactive),61.9 µM (inactive),> 100 µM (inactive),> 100 µM (inactive),> 100 µM (inactive),> 100 µM (inactive),> 100 µM (inactive),> 100 µM (inactive),> 100 µM (inactive),> 100 µM (inactive),> 100 µM (inactive),,48 µM (inactive),76 µM (inactive),> 100 µM (inactive),,> 100 µM (inactive),> 100 µM (inactive),30.3 µM (inactive),18.6 µM (inactive)
OC(c1ccc(Br)cc1)(c1cccs1)C1CC1 (stereo not drawn),35.7 µM (inactive),27 µM (inactive),26.2 µM (inactive),26.1 µM (inactive),19.7 µM (inactive),23.4 µM (inactive),29.9 µM (inactive),28.2 µM (inactive),18.1 µM (inactive),,25.1 µM (inactive),18.8 µM (inactive),22.7 µM (inactive),24.4 µM (inactive),21.6 µM (inactive),20.4 µM (inactive),41.1 µM (inactive),27.9 µM (inactive),26.7 µM (inactive),20.8 µM (inactive)
Cc1cc(O)c2c(c1)C(C1OC(CO)C(O)C(O)C1O)c1cc(O)cc(O)c1C2=O (stereo not drawn),> 100 µM (inactive),> 100 µM (inactive),> 100 µM (inactive),> 100 µM (inactive),> 100 µM (inactive),> 100 µM (inactive),> 100 µM (inactive),> 100 µM (inactive),> 100 µM (inactive),> 100 µM (inactive),> 100 µM (inactive),> 100 µM (inactive),> 100 µM (inactive),> 100 µM (inactive),> 100 µM (inactive),,> 100 µM (inactive),> 100 µM (inactive),> 100 µM (inactive),> 100 µM (inactive)
CCOC(=O)c1cn(CC)c2cc3c(cc2c1=O)CCS3(=O)=O,> 100 µM (inactive),> 100 µM (inactive),> 100 µM (inactive),> 100 µM (inactive),> 100 µM (inactive),> 100 µM (inactive),> 100 µM (inactive),> 100 µM (inactive),> 100 µM (inactive),> 100 µM (inactive),> 100 µM (inactive),> 100 µM (inactive),,> 100 µM (inactive),> 100 µM (inactive),19.1 µM (inactive),> 100 µM (inactive),> 100 µM (inactive),> 100 µM (inactive),> 100 µM (inactive)
